Reference: US20150050299A1, “METHODS FOR ENHANCING IMMUNE RESPONSE” (priority 2010, published 2015)

System: cultured cancer cell types (including MDA-MB-231, PC-3, A375 and SK-OV-3 among others)
Experiment: activity against cultured cancer cells in combination with DFMO
Type: cell-based
Text: Cancer cells can circumvent the ability of drugs such as α-difluoromethylornithine (DFMO) based on inhibition of polyamine biosynthesis, from completely depleting their internal polyamines by the importation of these molecules from external sources. […] The resulting novel two-drug combination therapy targeting cellular polyamine metabolism has shown exceptional efficacy against cutaneous squamous cell carcinomas (SCCs) in a transgenic ornithine decarboxylase (ODC) mouse model developed by us for the study of skin cancer. […] The availability of a potent polyamine transport inhibitor allows, for the first time, for a real test of the hypothesis that starving cells of polyamines will lead to objective clinical response. This therapy is molecularly-targeted, relatively nontoxic at the proposed dose, and consists of both a very well-characterized drug and a member of a novel chemical class.

CCCCCCCCCCCCCCCC(=O)NCCCC[C@@H](N)C(=O)NCCCNCCCCNCCCN [AMXT 1501, D-Lys(C16acyl)-Spm]
nature of cell culture effects: cytostatic and not cytotoxic
potency compared with AMXT 1426 (in combination with DFMO): several orders of magnitude higher potency
